Measurements taken from PubChem BioAssay (NCI).
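Cells were grown in 96-well plates and exposed to each compound for 48 hours at five concentrations; endpoints were interpolated linearly between bracketing concentrations, or set to the highest concentration if not reached. The concentration for 50% growth inhibition is given as GI50. TGI is the concentration that stops growth completely.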

Legend:
Assay in all cases: NCI-60 cell line screen, 48 h
EKVX NSCLC = system: EKVX NSCLC
K-562 leukemia = system: K-562 leukemia
U251 CNS = system: U251 CNS
NCI-H226 lung = system: NCI-H226 lung
LOX IMVI melanoma = system: LOX IMVI melanoma
MDA-MB-435 = system: MDA-MB-435
SF-539 CNS = system: SF-539 CNS
BT-549 breast = system: BT-549 breast
CCRF-CEM leukemia = system: CCRF-CEM leukemia
HCT-15 colon = system: HCT-15 colon
HCT-116 colon = system: HCT-116 colon
UACC-257 melanoma = system: UACC-257 melanoma
RXF 393 renal = system: RXF 393 renal
SK-OV-3 ovarian = system: SK-OV-3 ovarian
A549 NSCLC = system: A549 NSCLC
M14 melanoma = system: M14 melanoma
OVCAR-8 ovarian = system: OVCAR-8 ovarian
IGROV1 ovarian = system: IGROV1 ovarian
HS 578T breast = system: HS 578T breast
T-47D breast = system: T-47D breast
SNB-75 CNS = system: SNB-75 CNS
MDA-MB-468 breast = system: MDA-MB-468 breast
ACHN renal = system: ACHN renal
SNB-19 CNS = system: SNB-19 CNS
HT29 colon = system: HT29 colon
NCI-H522 lung = system: NCI-H522 lung
CAKI-1 renal = system: CAKI-1 renal
OVCAR-4 ovarian = system: OVCAR-4 ovarian
HL-60(TB) leukemia = system: HL-60(TB) leukemia
SR leukemia = system: SR leukemia
NCI-H460 lung = system: NCI-H460 lung
SK-MEL-2 melanoma = system: SK-MEL-2 melanoma
PC-3 prostate = system: PC-3 prostate
SF-295 CNS = system: SF-295 CNS
SF-268 CNS = system: SF-268 CNS
RPMI-8226 leukemia = system: RPMI-8226 leukemia
UO-31 renal = system: UO-31 renal
COLO 205 colon = system: COLO 205 colon
TK-10 renal = system: TK-10 renal
A498 renal = system: A498 renal
OVCAR-3 ovarian = system: OVCAR-3 ovarian
MCF7 breast = system: MCF7 breast
SK-MEL-5 melanoma = system: SK-MEL-5 melanoma
UACC-62 melanoma = system: UACC-62 melanoma
786-0 renal = system: 786-0 renal
MOLT-4 leukemia = system: MOLT-4 leukemia
MALME-3M melanoma = system: MALME-3M melanoma
SK-MEL-28 melanoma = system: SK-MEL-28 melanoma
NCI-H23 lung = system: NCI-H23 lung
HOP-92 NSCLC = system: HOP-92 NSCLC
MDA-MB-231 breast = system: MDA-MB-231 breast
KM12 colon = system: KM12 colon
HOP-62 NSCLC = system: HOP-62 NSCLC
SN12C renal = system: SN12C renal
OVCAR-5 ovarian = system: OVCAR-5 ovarian
HCC-2998 colon = system: HCC-2998 colon
SW-620 colon = system: SW-620 colon
DU-145 prostate = system: DU-145 prostate

## CC(=O)Nc1cccc(Nc2nc(NCc3ccccc3)c3ccccc3n2)c1
EKVX NSCLC
  GI50: 4.01 µM
  TGI: > 10 µM
K-562 leukemia
  GI50: 3250 nM
  TGI: > 10 µM
U251 CNS
  GI50: 1870 nM
  TGI: 3.93 µM
NCI-H226 lung
  GI50: 1.69 µM
  TGI: 4.15 µM
LOX IMVI melanoma
  GI50: 1600 nM
  TGI: 2980 nM
MDA-MB-435
  GI50: 1.7 µM
  TGI: 3.26 µM
SF-539 CNS
  GI50: 1740 nM
  TGI: 3.15 µM
BT-549 breast
  GI50: > 10000 nM
  TGI: > 10 µM
CCRF-CEM leukemia
  GI50: 2810 nM
  TGI: 7.87 µM
HCT-15 colon
  GI50: 1760 nM
  TGI: 3.45 µM
HCT-116 colon
  GI50: 1660 nM
  TGI: 3.16 µM
UACC-257 melanoma
  GI50: 1.86 µM
  TGI: 3.74 µM
RXF 393 renal
  GI50: 1.56 µM
  TGI: 3.22 µM
SK-OV-3 ovarian
  GI50: > 10 µM
  TGI: > 10 µM
A549 NSCLC
  GI50: 2.82 µM
  TGI: > 10 µM
M14 melanoma
  GI50: 1.66 µM
  TGI: 3.11 µM
OVCAR-8 ovarian
  GI50: 2250 nM
  TGI: 5.17 µM
IGROV1 ovarian
  GI50: 3.15 µM
  TGI: > 10 µM
HS 578T breast
  GI50: 2.16 µM
  TGI: 5.96 µM
T-47D breast
  GI50: 1.65 µM
  TGI: 3.81 µM
SNB-75 CNS
  GI50: 1420 nM
  TGI: 3.51 µM
MDA-MB-468 breast
  GI50: 1540 nM
  TGI: 3.01 µM
ACHN renal
  GI50: 1.77 µM
  TGI: 3.66 µM
SNB-19 CNS
  GI50: 2.49 µM
  TGI: 9.38 µM
HT29 colon
  GI50: 1.84 µM
  TGI: 3.82 µM
NCI-H522 lung
  GI50: 1.68 µM
  TGI: 3.24 µM
CAKI-1 renal
  GI50: 1.82 µM
  TGI: 4.4 µM
OVCAR-4 ovarian
  GI50: 1.79 µM
  TGI: 3.66 µM
HL-60(TB) leukemia
  GI50: 3580 nM
  TGI: > 10 µM
SR leukemia
  GI50: 4050 nM
  TGI: > 10 µM
NCI-H460 lung
  GI50: 1680 nM
  TGI: 3.3 µM
SK-MEL-2 melanoma
  GI50: 3.41 µM
  TGI: > 10 µM
PC-3 prostate
  GI50: 2.32 µM
  TGI: 8.15 µM
SF-295 CNS
  GI50: 1.66 µM
  TGI: 3.05 µM
SF-268 CNS
  GI50: > 10 µM
  TGI: > 10 µM
RPMI-8226 leukemia
  GI50: 3240 nM
  TGI: > 10 µM
UO-31 renal
  GI50: 1730 nM
  TGI: 5.41 µM
COLO 205 colon
  GI50: 1.9 µM
  TGI: 3.53 µM
TK-10 renal
  GI50: 3.12 µM
  TGI: > 10 µM
A498 renal
  GI50: > 10 µM
  TGI: > 10 µM
OVCAR-3 ovarian
  GI50: 1740 nM
  TGI: 3.3 µM
MCF7 breast
  GI50: 1610 nM
  TGI: 3.06 µM
SK-MEL-5 melanoma
  GI50: 1.47 µM
  TGI: 3.12 µM
UACC-62 melanoma
  GI50: 1.42 µM
  TGI: 2.74 µM
786-0 renal
  GI50: 1830 nM
  TGI: 3.87 µM
MOLT-4 leukemia
  GI50: 3.08 µM
  TGI: > 10 µM
MALME-3M melanoma
  GI50: 1.48 µM
  TGI: 2.81 µM
SK-MEL-28 melanoma
  GI50: 1.61 µM
  TGI: 3.02 µM
NCI-H23 lung
  GI50: 2.5 µM
  TGI: 9.11 µM
HOP-92 NSCLC
  GI50: 1520 nM
  TGI: 7.85 µM
MDA-MB-231 breast
  GI50: 1.69 µM
  TGI: 3.24 µM
KM12 colon
  GI50: 2110 nM
  TGI: 4.91 µM
HOP-62 NSCLC
  GI50: 3.46 µM
  TGI: > 10 µM
SN12C renal
  GI50: > 10 µM
  TGI: > 10 µM
OVCAR-5 ovarian
  GI50: 2.08 µM
  TGI: 5.67 µM
HCC-2998 colon
  GI50: 1.68 µM
  TGI: 3.22 µM
SW-620 colon
  GI50: 1830 nM
  TGI: 3.37 µM
DU-145 prostate
  GI50: 5.41 µM
  TGI: > 10 µM

## O=c1nc(-c2ccccc2)cc(-c2cc3ccccc3nc2Cl)[nH]1
EKVX NSCLC
  GI50: 14.5 µM
  TGI: 36.8 µM
K-562 leukemia
  GI50: 2710 nM
  TGI: 9.19 µM
U251 CNS
  GI50: 1620 nM
  TGI: 4.25 µM
NCI-H226 lung
  GI50: 11.2 µM
  TGI: 28.1 µM
MDA-MB-435
  GI50: 6.96 µM
  TGI: 22.3 µM
SF-539 CNS
  GI50: 2050 nM
  TGI: 5.1 µM
BT-549 breast
  GI50: 2610 nM
  TGI: 13.3 µM
CCRF-CEM leukemia
  GI50: 2750 nM
  TGI: 9.32 µM
HCT-15 colon
  GI50: 2120 nM
  TGI: 5.22 µM
HCT-116 colon
  GI50: 1890 nM
  TGI: 3.9 µM
UACC-257 melanoma
  GI50: 17 µM
  TGI: 36.9 µM
RXF 393 renal
  GI50: 11.1 µM
  TGI: 25.1 µM
SK-OV-3 ovarian
  GI50: 21.7 µM
  TGI: > 100 µM
A549 NSCLC
  GI50: 11.6 µM
  TGI: 80.3 µM
M14 melanoma
  GI50: 12 µM
  TGI: 31.6 µM
OVCAR-8 ovarian
  GI50: 3710 nM
  TGI: 18.6 µM
IGROV1 ovarian
  GI50: 12.8 µM
  TGI: 27.9 µM
HS 578T breast
  GI50: 12.3 µM
  TGI: 60.2 µM
T-47D breast
  GI50: 21.4 µM
  TGI: > 100 µM
SNB-75 CNS
  GI50: 3820 nM
  TGI: 20.6 µM
MDA-MB-468 breast
  GI50: 4240 nM
  TGI: 19.5 µM
ACHN renal
  GI50: 5.59 µM
  TGI: 18.2 µM
SNB-19 CNS
  GI50: 3.92 µM
  TGI: 15.8 µM
HT29 colon
  GI50: 6.62 µM
  TGI: 24.8 µM
NCI-H522 lung
  GI50: 8.4 µM
  TGI: 22.3 µM
CAKI-1 renal
  GI50: 10.1 µM
  TGI: 23 µM
OVCAR-4 ovarian
  GI50: 17.8 µM
  TGI: 61.4 µM
HL-60(TB) leukemia
  GI50: 2270 nM
  TGI: 6.67 µM
SR leukemia
  GI50: 549 nM
  TGI: 4.86 µM
NCI-H460 lung
  GI50: 3000 nM
  TGI: 10.3 µM
SK-MEL-2 melanoma
  GI50: 17.1 µM
  TGI: 34 µM
PC-3 prostate
  GI50: 6.11 µM
  TGI: 26.4 µM
SF-295 CNS
  GI50: 10.1 µM
  TGI: 24.1 µM
SF-268 CNS
  GI50: 4.97 µM
  TGI: 18.6 µM
RPMI-8226 leukemia
  GI50: 2200 nM
  TGI: 7.19 µM
UO-31 renal
  GI50: 3980 nM
  TGI: 18 µM
COLO 205 colon
  GI50: 8.33 µM
  TGI: 25.4 µM
TK-10 renal
  GI50: 16.4 µM
  TGI: 41.5 µM
A498 renal
  GI50: 21.2 µM
  TGI: 43.5 µM
OVCAR-3 ovarian
  GI50: 3380 nM
  TGI: 12.8 µM
MCF7 breast
  GI50: 2530 nM
  TGI: 14.8 µM
SK-MEL-5 melanoma
  GI50: 17.6 µM
  TGI: 33.4 µM
UACC-62 melanoma
  GI50: 7.98 µM
  TGI: 20.9 µM
786-0 renal
  GI50: 3390 nM
  TGI: 13.3 µM
MOLT-4 leukemia
  GI50: 3.07 µM
  TGI: 12.4 µM
MALME-3M melanoma
  GI50: 12.4 µM
  TGI: 26.4 µM
SK-MEL-28 melanoma
  GI50: 11.1 µM
  TGI: 23.3 µM
NCI-H23 lung
  GI50: 10.7 µM
  TGI: 39.6 µM
HOP-92 NSCLC
  GI50: 4210 nM
  TGI: 22.4 µM
MDA-MB-231 breast
  GI50: 6.12 µM
  TGI: 19.3 µM
KM12 colon
  GI50: 1960 nM
  TGI: 4.39 µM
HOP-62 NSCLC
  GI50: 5.23 µM
  TGI: 20.6 µM
SN12C renal
  GI50: 11.2 µM
  TGI: 23.9 µM
OVCAR-5 ovarian
  GI50: 12.2 µM
  TGI: 25.3 µM
HCC-2998 colon
  GI50: 16.9 µM
  TGI: 33.7 µM
SW-620 colon
  GI50: 1930 nM
  TGI: 3.91 µM
DU-145 prostate
  GI50: 7.23 µM
  TGI: 20.3 µM
